Experimental data as given in US20110039721A1, “METHOD FOR PREDICTION ABOUT CARCINOGENICITY OF SUBSTANCE IN RODENT” (Chemicals Evaluation and Research Institute, priority 2007, published 2011).
Read-outs that look alike come from different tables or passages of the source.

Assays:
[1] = test system: rodent; details: classification of the substance (C+/C−); cited from earlier work
[2] = classification of the substance (M+/M−); cited from earlier work
[3] = test system: liver; details: cited from earlier work
[4] = test system: mRNA expressed from the genes (A) to (D) in rat liver; test: Behavior of genes (mRNA expression level, oligo-DNA microarray) in rat liver after 28-day oral administration; assay type: in vivo; details: for Behavior of gene caused by administration of chemical substance, Gene No. 4846 / Behavior of gene caused by administration of chemical substance, Gene No. 2026 / Behavior of gene caused by administration of chemical substance, Gene No. 4218 / Behavior of gene caused by administration of chemical substance, Gene No. 6182 / Behavior of gene caused by administration of chemical substance, Gene No. 5600: gene group (A); for Behavior of gene caused by administration of chemical substance, Gene No. 4846: Unigene No. Rn.144554; for Behavior of gene caused by administration of chemical substance, Gene No. 2026 / Behavior of gene caused by administration of chemical substance, Gene No. 4218: Unigene No. Rn.167075; for Behavior of gene caused by administration of chemical substance, Gene No. 6182: Unigene No. Rn.5834; for Behavior of gene caused by administration of chemical substance, Gene No. 5600: Unigene No. Rn.9836; for Behavior of gene caused by administration of chemical substance, Gene No. 1494 / Behavior of gene caused by administration of chemical substance, Gene No. 2045 / Behavior of gene caused by administration of chemical substance, Gene No. 2203: gene group (B); for Behavior of gene caused by administration of chemical substance, Gene No. 1494: Unigene No. Rn.1430; for Behavior of gene caused by administration of chemical substance, Gene No. 2045: Unigene No. Rn.19329; for Behavior of gene caused by administration of chemical substance, Gene No. 2203: Unigene No. Rn.21240; for Behavior of gene caused by administration of chemical substance, Gene No. 533 / Behavior of gene caused by administration of chemical substance, Gene No. 725 / Behavior of gene caused by administration of chemical substance, Gene No. 1163 / Behavior of gene caused by administration of chemical substance, Gene No. 4973 / Behavior of gene caused by administration of chemical substance, Gene No. 4095 / Behavior of gene caused by administration of chemical substance, Gene No. 1334 / Behavior of gene caused by administration of chemical substance, Gene No. 6620 / Behavior of gene caused by administration of chemical substance, Gene No. 6303 / Behavior of gene caused by administration of chemical substance, Gene No. 5878 / Behavior of gene caused by administration of chemical substance, Gene No. 1131 / Behavior of gene caused by administration of chemical substance, Gene No. 1562 / Behavior of gene caused by administration of chemical substance, Gene No. 1741 / Behavior of gene caused by administration of chemical substance, Gene No. 893 / Behavior of gene caused by administration of chemical substance, Gene No. 6026 / Behavior of gene caused by administration of chemical substance, Gene No. 154 / Behavior of gene caused by administration of chemical substance, Gene No. 1993 / Behavior of gene caused by administration of chemical substance, Gene No. 813 / Behavior of gene caused by administration of chemical substance, Gene No. 2494 / Behavior of gene caused by administration of chemical substance, Gene No. 2546 / Behavior of gene caused by administration of chemical substance, Gene No. 3776 / Behavior of gene caused by administration of chemical substance, Gene No. 3929 / Behavior of gene caused by administration of chemical substance, Gene No. 1119 / Behavior of gene caused by administration of chemical substance, Gene No. 6742 / Behavior of gene caused by administration of chemical substance, Gene No. 5634: gene group (C); for Behavior of gene caused by administration of chemical substance, Gene No. 533: Unigene No. Rn.106184; for Behavior of gene caused by administration of chemical substance, Gene No. 725: Unigene No. Rn.108075; for Behavior of gene caused by administration of chemical substance, Gene No. 1163: Unigene No. Rn.11766; for Behavior of gene caused by administration of chemical substance, Gene No. 4973: Unigene No. Rn.118529; for Behavior of gene caused by administration of chemical substance, Gene No. 4095: Unigene No. Rn.119024; for Behavior of gene caused by administration of chemical substance, Gene No. 1334 / Behavior of gene caused by administration of chemical substance, Gene No. 6620: Unigene No. Rn.120914; for Behavior of gene caused by administration of chemical substance, Gene No. 6303: Unigene No. Rn.123063; for Behavior of gene caused by administration of chemical substance, Gene No. 5878: Unigene No. Rn.143213; for Behavior of gene caused by administration of chemical substance, Gene No. 1131: Unigene No. Rn.144946; for Behavior of gene caused by administration of chemical substance, Gene No. 1562: Unigene No. Rn.14744; for Behavior of gene caused by administration of chemical substance, Gene No. 1741: Unigene No. Rn.1647; for Behavior of gene caused by administration of chemical substance, Gene No. 893: Unigene No. Rn.164817; for Behavior of gene caused by administration of chemical substance, Gene No. 6026: Unigene No. Rn.167685; for Behavior of gene caused by administration of chemical substance, Gene No. 154: Unigene No. Rn.185941; for Behavior of gene caused by administration of chemical substance, Gene No. 1993: Unigene No. Rn.18728; for Behavior of gene caused by administration of chemical substance, Gene No. 813: Unigene No. Rn.201760; for Behavior of gene caused by administration of chemical substance, Gene No. 2494: Unigene No. Rn.23969; for Behavior of gene caused by administration of chemical substance, Gene No. 2546: Unigene No. Rn.24561; for Behavior of gene caused by administration of chemical substance, Gene No. 3776: Unigene No. Rn.43232; for Behavior of gene caused by administration of chemical substance, Gene No. 3929: Unigene No. Rn.4620; for Behavior of gene caused by administration of chemical substance, Gene No. 1119: Unigene No. Rn.9757; for Behavior of gene caused by administration of chemical substance, Gene No. 6742: Unigene No. Rn.9779; for Behavior of gene caused by administration of chemical substance, Gene No. 5634: Unigene No. Rn.9862; for Behavior of gene caused by administration of chemical substance, Gene No. 5726: gene group (D), Unigene No. Rn.9939
Method in brief: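 Liver mRNA measured by oligo-DNA microarray after 28 days of once-daily oral gavage in 5-week-old male F344 rats (n=4 per group), with vehicle controls given equal solvent volume. Significance threshold: 1.5-fold up or down versus control, with changes opposite in direction to other carcinogens counted as not significant.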

SMILES | Carcinogenicity [1] | Mutagenicity by Ames test [2] | Behavior of gene caused by administration of chemical substance, Gene No. 4846 [4] | Behavior of gene caused by administration of chemical substance, Gene No. 2026 [4] | Behavior of gene caused by administration of chemical substance, Gene No. 4218 [4] | Behavior of gene caused by administration of chemical substance, Gene No. 6182 [4] | Behavior of gene caused by administration of chemical substance, Gene No. 5600 [4] | Behavior of gene caused by administration of chemical substance, Gene No. 1494 [4] | Behavior of gene caused by administration of chemical substance, Gene No. 2045 [4] | Behavior of gene caused by administration of chemical substance, Gene No. 2203 [4] | Behavior of gene caused by administration of chemical substance, Gene No. 533 [4] | Behavior of gene caused by administration of chemical substance, Gene No. 725 [4] | Behavior of gene caused by administration of chemical substance, Gene No. 1163 [4] | Behavior of gene caused by administration of chemical substance, Gene No. 4973 [4] | Behavior of gene caused by administration of chemical substance, Gene No. 4095 [4] | Behavior of gene caused by administration of chemical substance, Gene No. 1334 [4] | Behavior of gene caused by administration of chemical substance, Gene No. 6620 [4] | Behavior of gene caused by administration of chemical substance, Gene No. 6303 [4] | Behavior of gene caused by administration of chemical substance, Gene No. 5878 [4] | Behavior of gene caused by administration of chemical substance, Gene No. 1131 [4] | also measured
NC(=O)c1ccccc1C(N)=O [TS073, Phthalamide] | C− | M− | − | − | − | − | − | − | + | − | − | − | − | − | − | − | − | − | − | − | Liver carcinogenicity ([3]; in vivo): Cr−; Behavior of gene caused by administration of chemical substance, Gene No. 1562 [4]: −; Behavior of gene caused by administration of chemical substance, Gene No. 1741 [4]: −; Behavior of gene caused by administration of chemical substance, Gene No. 893 [4]: −; Behavior of gene caused by administration of chemical substance, Gene No. 6026 [4]: −; Behavior of gene caused by administration of chemical substance, Gene No. 154 [4]: −; Behavior of gene caused by administration of chemical substance, Gene No. 1993 [4]: −; Behavior of gene caused by administration of chemical substance, Gene No. 813 [4]: −; Behavior of gene caused by administration of chemical substance, Gene No. 2494 [4]: −; Behavior of gene caused by administration of chemical substance, Gene No. 2546 [4]: −; Behavior of gene caused by administration of chemical substance, Gene No. 3776 [4]: −; Behavior of gene caused by administration of chemical substance, Gene No. 3929 [4]: −; Behavior of gene caused by administration of chemical substance, Gene No. 1119 [4]: −; Behavior of gene caused by administration of chemical substance, Gene No. 6742 [4]: −; Behavior of gene caused by administration of chemical substance, Gene No. 5634 [4]: −; Behavior of gene caused by administration of chemical substance, Gene No. 5726 [4]: −
O=C1CCCCCN1 [TS074, Caprolactam] | C− | M− | − | − | − | + | − | − | + | − | − | + | − | + | + | − | − | − | − | − | Liver carcinogenicity ([3]; in vivo): Cr−; Behavior of gene caused by administration of chemical substance, Gene No. 1562 [4]: −; Behavior of gene caused by administration of chemical substance, Gene No. 1741 [4]: +; Behavior of gene caused by administration of chemical substance, Gene No. 893 [4]: −; Behavior of gene caused by administration of chemical substance, Gene No. 6026 [4]: −; Behavior of gene caused by administration of chemical substance, Gene No. 154 [4]: −; Behavior of gene caused by administration of chemical substance, Gene No. 1993 [4]: −; Behavior of gene caused by administration of chemical substance, Gene No. 813 [4]: −; Behavior of gene caused by administration of chemical substance, Gene No. 2494 [4]: −; Behavior of gene caused by administration of chemical substance, Gene No. 2546 [4]: −; Behavior of gene caused by administration of chemical substance, Gene No. 3776 [4]: +; Behavior of gene caused by administration of chemical substance, Gene No. 3929 [4]: +; Behavior of gene caused by administration of chemical substance, Gene No. 1119 [4]: −; Behavior of gene caused by administration of chemical substance, Gene No. 6742 [4]: −; Behavior of gene caused by administration of chemical substance, Gene No. 5634 [4]: +; Behavior of gene caused by administration of chemical substance, Gene No. 5726 [4]: −
Cc1ccc(N)cc1Cl [TS080, 3-Chloro-p-toluidine] | C− | M− | + | + | + | + | + | + | − | + | + | + | − | + | + | − | − | − | − | − | Liver carcinogenicity ([3]; classification of the substance (Cr+/Cr−)): Cr−; Behavior of gene caused by administration of chemical substance, Gene No. 1562 [4]: −; Behavior of gene caused by administration of chemical substance, Gene No. 1741 [4]: −; Behavior of gene caused by administration of chemical substance, Gene No. 893 [4]: +; Behavior of gene caused by administration of chemical substance, Gene No. 6026 [4]: −; Behavior of gene caused by administration of chemical substance, Gene No. 154 [4]: +; Behavior of gene caused by administration of chemical substance, Gene No. 1993 [4]: −; Behavior of gene caused by administration of chemical substance, Gene No. 813 [4]: +; Behavior of gene caused by administration of chemical substance, Gene No. 2494 [4]: −; Behavior of gene caused by administration of chemical substance, Gene No. 2546 [4]: +; Behavior of gene caused by administration of chemical substance, Gene No. 3776 [4]: −; Behavior of gene caused by administration of chemical substance, Gene No. 3929 [4]: −; Behavior of gene caused by administration of chemical substance, Gene No. 1119 [4]: −; Behavior of gene caused by administration of chemical substance, Gene No. 6742 [4]: −; Behavior of gene caused by administration of chemical substance, Gene No. 5634 [4]: −; Behavior of gene caused by administration of chemical substance, Gene No. 5726 [4]: +
